Reference: patent US11685953B2, “Biomarkers and methods of treating cancer” (ASTRAZENECA AB, priority 2015, dated 2023)

Legend:
pAKT (T308) = assay: Immunoblot of phosphorylated AKT (T308) in PIK3CA mutant breast cancer cell lines; assay type: cell-based, human
Protocol: Protocol for Measuring Phosphorylated AKT (T308) in MCF7, T47D Cells.
Low-passage MCF7 and T47D cells were obtained from AZ Cell Bank Collection and cultured as described previously (Avivar-Valderas et al., MCB, 31(17):3616-29, 2011). Wild-type and MCF10A-PI3Kα^H1047R were provided by Horizon Discovery.
After culture, cells were lysed, and protein was analyzed by immunoblotting (IB) (Avivar-Valderas et al., MCB, 31(17):3616-29, 2011). Membranes were blotted using antibodies against MAP3K1 (Santa Cruz) phospho AKT (Thr308) (Cell Signaling Technology) and Vinculin (Sigma). Bound antibodies were detected with horseradish peroxidase (HRP)-conjugated secondary antibodies and chemiluminescence assays (Avivar-Valderas et al., MCB, 31(17):3616-29, 2011).
The effect of MAP3K1 loss of expression on the pharmacological activity of Compound A using the cell-lines generated via siRNA transfection was examined by monitoring the level of inhibition of signalling readouts downstream of PI3Kalpha. A major readout of the pathway is the phosphorylation of AKT at Threonine 308. This phosphorylation is carried out by PDK1, itself activated by PI3K-generated PIP3 (phosphatidyl inositol 3,4,5-trisphosphate). Further pathway readouts are phosphorylation of PRAS40 (Proline-Rich AKT1 Substrate) at Thr246. […]

pPRAS40 = assay: Western blot of pPRAS40 (readout of AKT activity) in MCF7 parental and CR2.5 cells; assay type: cell-based, human; conditions: MAP3K1-deficient MCF7 CR2.5 cell line, overnight incubation (FIG. 3)
Protocol: (§1) Control MCF7 (parental) and MAP3K1-deficient (CR2.5) cell lines cultured in full growth media and treated with either Compound A, Compound B and GDC-0068 as described previously. Following overnight incubation, cell lysates are prepared and analysed by Western blotting using antibodies specific for phosphorylated proteins in the PI3K pathway (FIG. 3).

pS6 RP (S235/236) = assay: Western blot of pS6 RP (distal readout of PI3Kα activity) in MCF7 parental and CR2.5 cells; assay type: cell-based, human; conditions: overnight incubation (FIG. 3)
Protocol: as §1

MCF7 CR2.5 acini = assay: 3D-Matrigel culture, acinus volume, MAP3K1-deficient MCF7 CR2.5; assay type: cell-based, human; conditions: 500 nM every 3 days until day 15; MAP3K1-deficient acini (FIG. 7A left)
[1] = tested on: MCF10A-H1047R parental cells; assay: IncuCyte proliferation assay, MCF10A-H1047R parental cells; assay type: cell-based; conditions: 500 nM; MCF10A-H1047R parental cells (FIG. 4, FIG. 6)
Protocol: (§2) MCF7 and MCF10A cells were plated in 96 well plates at a density of 2000 cells per well in RPMI media containing 10% FBS or DMEM/F12 media containing 5% of HS (horse serum) respectively. After incubation at 37° C. for 16 hours, concentrations of Compound A, Compound B (30 μM to 117 nM) or AZD2014 (15 μM to 66 nM) were added to the assay plates. Plates were then placed in the IncuCyte and scheduled to be scanned every 6 h for 3 days. Relative percentage of confluence data was normalized to control DMSO treated cells and fitted to a nonlinear regression curve using PRISM (Graphpad).

pS6 RP = pS6 RP staining of 3D-Matrigel acini, MCF7 parental and MCF7 CR2.5; assay type: cell-based, human; conditions: 2 μM per FIG. 7B legend
Protocol: For 3D cultures, cells were plated in commercially available growth factor-reduced Matrigel (Mgel) (BD Biosciences, San Diego, Calif.) and grown (Avivar-Valderas et al., MCB, 31(17):3616-29, 2011). […] 3D-Matrigel MCF10A acinar structures were fixed at day 15 and processed for size measurement and IF microscopy analysis (Avivar-Valderas et al., MCB, 31(17):3616-29, 2011)
ECM-attached cells (located in the outer rim) were positive for pS6 RP in parental acini. As predicted, the number of pS6 RP positive cells was greater in MCF7-CR2.5 (FIG. 7B, grey bars).

[2] = tested on: MCF10A-H1047R control acini; assay: 3D-Matrigel culture, cleaved caspase 3 (apoptosis), MCF10A-H1047R control acini; assay type: cell-based; conditions: 15 days (FIG. 7A right)
Protocol: (§3) For 3D cultures, cells were plated in commercially available growth factor-reduced Matrigel (Mgel) (BD Biosciences, San Diego, Calif.) and grown (Avivar-Valderas et al., MCB, 31(17):3616-29, 2011). Prior to fixation for IF analysis, acini were treated with 500 nM Compound B every 3 days until the endpoint (day 15). 3D-Matrigel MCF10A acinar structures were fixed at day 15 and processed for size measurement and IF microscopy analysis (Avivar-Valderas et al., MCB, 31(17):3616-29, 2011)
(§4) This might be explained by an increase of cell proliferation or/and reduction of cell death (anoikis in ECM-deprived cells). To test the latter, staining with caspase 3 (anoikis readout) and confocal equatorial sections to analyse lumen formation (main compartment in which anoikis takes place) were carried out.

[3] = tested on: MCF10A-H1047R CR2.3 cells; assay: IncuCyte proliferation assay, MAP3K1 mutant clone H1047R-CR2.3; assay type: cell-based
Protocol: as §2

MCF7-CR1.4 cells = assay: IncuCyte proliferation assay, MAP3K1 mutant clone MCF7-CR1.4; assay type: cell-based, human
[4] = tested on: MAP3K1-deficient MCF10A-H1047R acini; assay: 3D-Matrigel culture, cleaved caspase 3 (apoptosis), MAP3K1-deficient MCF10A-H1047R acini; assay type: cell-based; conditions: 15 days (FIG. 7A right)
Protocol: as §3, §4

MCF7 parental cells = assay: IncuCyte proliferation assay, MCF7 parental cells; assay type: cell-based, human; conditions: 500 nM; parental MCF7 cells (FIG. 4C-D, FIG. 6B)
Protocol: as §2

MCF7 parental acini = assay: 3D-Matrigel culture, acinus volume, MCF7 parental; assay type: cell-based, human; conditions: 500 nM every 3 days until day 15; control cultures (MCF7 parental) (FIG. 7A left)
[5] = MAP3K1-deficient MCF7 cells (CR2.5)

Q: CCn1nc(C2CCN(C(=O)CCO)CC2)nc1-c1cnc(N)c(-c2nnc(C(C)(C)C)o2)n1 [Compound A, 1-(4-(5-(5-amino-6-(5-tert-butyl-1,3,4-oxadiazol-2-yl)pyrazin-2-yl)-1-ethyl-1H-1,2,4-triazol-3-yl)piperidin-1-yl)-3-hydroxypropan-1-one] was tested. Which “phosphorylation of AKT on Thr308” value (pAKT (T308); 250 nM for 24 hours, control cells transfected with control siRNA duplex inactive on MAP3K1 mRNA (MCF7, T47D; FIG. 2A)) did it give?
A: profound reduction

Q: And the “inhibition of PI3K signalling, effect on pAKT on Thr308 by Western blotting” value (pAKT (T308); MAP3K1-deficient MCF7 clones CR1.4 and CR2.5 compared to parental MCF7 (FIG. 2B))?
A: less pronounced

Q: What about the “inhibition of pPRAS40” value (pPRAS40) of the same compound?
A: resistant

Q: And the “inhibition of pS6 RP activity” value (pS6 RP (S235/236); [5])?
A: resistant to all treatments

Q: And the “inhibition of pS6 RP activity” value (pS6 RP (S235/236); parental MCF7 cells)?
A: efficiently inhibit

Q: For NC1(C(=O)N[C@@H](CCO)c2ccc(Cl)cc2)CCN(c2ncnc3[nH]ccc23)CC1 [Compound B, 4-amino-N-[(1S)-1-(4-chlorophenyl)-3-hydroxy-propyl]-1-(7H-pyrrolo[2,3-d]pyrimidin-4-yl)piperidine-4-carboxamide], which “acini volume, reduction by treatment” value (MCF7 CR2.5 acini) is on record?
A: partially reverted

Q: And the effect on proliferation [1]?
A: able to inhibit the proliferation

Q: What about the “number of positive pS6 RP cells, reduction by treatment” value (pS6 RP; MCF7 CR2.5 acini) of the same compound?
A: reverted

Q: And the “number of positive pS6 RP cells” value (pS6 RP; parental MCF7 acini)?
A: strongly reduced

Q: What about the “number of positive cleaved caspase 3 events” value [2] of the same compound?
A: significant increase

Q: And the effect on proliferation ([3]; 500 nM, MAP3K1-mutant line derived from MCF10A-H1047R (FIG. 4, FIG. 6))?
A: no effect

Q: What about the “increase of IC50 for proliferation relative to parental cells” value ([3]; clone H1047R-CR2.3 relative to MCF10A-H1047R parental cells (FIG. 5)) of the same compound?
A: 10 fold

Q: And the effect on proliferation (MCF7-CR1.4 cells; 500 nM, MCF7-CR1.4 (FIG. 4C-D, FIG. 6B))?
A: no effect

Q: And the “increase of IC50 for proliferation relative to parental cells” value (MCF7-CR1.4 cells; MCF7-CR1.4 relative to parental MCF7 cells (FIG. 5))?
A: 3 fold

Q: And the “increase in number of positive cleaved caspase 3 events” value [4]?
A: not significant

Q: What about the “inhibition of pPRAS40” value (pPRAS40) of the same compound?
A: resistant

Q: What about the “effect on proliferation (growth)” value (MCF7 parental cells) of the same compound?
A: able to reduce growth

Q: What about the “inhibition of pS6 RP activity” value (pS6 RP (S235/236); [5]) of the same compound?
A: resistant to all treatments

Q: And the “inhibition of pS6 RP activity” value (pS6 RP (S235/236); parental MCF7 cells)?
A: efficiently inhibit

Q: What about the acini volume (MCF7 parental acini) of the same compound?
A: significantly reduced

Q: With CC(C)NC[C@@H](C(=O)N1CCN(c2ncnc3c2[C@H](C)C[C@H]3O)CC1)c1ccc(Cl)cc1 [GDC-0068, ipatasertib, reference compound] as the compound, how does the “inhibition of pPRAS40” value (pPRAS40) read?
A: resistant

Q: And the “inhibition of pS6 RP activity” value (pS6 RP (S235/236); [5])?
A: resistant to all treatments

Q: And the “inhibition of pS6 RP activity” value (pS6 RP (S235/236); parental MCF7 cells)?
A: efficiently inhibit
